Source: patent US4870160A, “Polypeptides with laminin activity” (Regents of the University of Minnesota, priority 1987, dated 1989)
Peptide text beside a SMILES is read from it.

Key:
[1] = tested on: Bovine aortic endothelial cells; test: Aortic endothelial cell adhesion assay (Example 5); type: cell-based; conditions: 0.1; 1.0; and 10.0 μg/per well adsorbed, 120 minutes at 37° C, FIG. 9
Procedure: Bovine aortic endothelial cells were isolated according to the following protocol. Aortas were obtained from a local slaughterhouse, washed in cold phosphate buffered saline (PBS) (136 mM NaCl, 2.6 mM KCl, 15.2 mM Na2HP04, pH 7.2) and processed within 2 hours. Crude collagenase (CLS III, 125-145 units per mg dry weight, Cooper Biomedical) was used at 2 mg/ml in Dulbecco's modified Eagle's medium (DMEM) (GIBCO). The vessel was clamped at the distal end, filled with the collagenase-PBS solution and digestion was carried out for 10 minutes. The lumenal contents were harvested, followed by the addition of fresh collagenase for two additional 10-minute periods. The enzyme-cell suspensions were added to an equal volume of DMEM containing 10% fetal bovine serum (FBS) to inhibit the enzyme and spun in a centrifuge at 400×g for 10 minutes. The resulting cell pellet was resuspended in DMEM containing 10% FBS, 100 units/ml of penicillin G, 100 μg/ml of streptomycin and 100 μg/ml of crude fibroblast growth factor. Cells are cultured in 75 cm^2 flasks in a humidified 5% CO2 atmosphere at 37° C. Cultures were fed twice a week with the same medium and cells were used in assays when approximately 75% confluent. Cells were identified as endothelial in nature by characteristic cobblestone morphology, contact inhibition of growth upon reaching confluency, and positive immunofluorescent staining for factor VIII:RAg (Miles Laboratories) [S. Schwartz, In Vitro, 14, 966 (1978)]. Only endothelial cells, megakaryocytes and platelets are known to contain the factor VIII:RAg. This method routinely gives a high yield of endothelial cells with little contamination (less than 5%) by smooth muscle cells, pericytes or fibroblasts as judged by phase contrast microscopy as well as by immunostaining.
Adhesion was measured using 96 well microtiter plates adsorbed with three different amounts (0.1; 1.0; and 10.0 μg/per well) of peptides 9, 11-18, BSA and laminin. Cultures of cells which were 60-80% confluent were metabolically labeled for 24 hours with the addition of 3 mCi/ml of ^3 H-amino acid mixture. On the day of the assay, the cells were harvested by trypsinization, the trypsin was inhibited by the addition of serum, and the cells were washed free of this mixture and resuspended in DMEM buffered with HEPES at pH 7.2. The adhesion medium also contained 2 mg/ml BSA. The cells were adjusted to a concentration of 3-4×10^4 /ml and 100 μls of this cell suspension was added to the wells. The assay mixture was then incubated at 37° C for 120 minutes. […] The solubilized cells were then quantitated using a liquid scintillation counter. […]

peptide 13 = biological target: T1, peptide 13 (Mus musculus, UniProt P02469); test: Heparin/peptide interaction specificity, competition on coated peptide 13 (Example 4); type: binding; conditions: 12.5 ug per well of peptide 13 coated, FIG. 8
T1 construct: polypeptide F13 formally represents isolated laminin residues 1171-1188; made in house; host or cells: chemical solid-phase (Merrifield) synthesis, no expression host
Procedure: (§1) To check whether charge was the main factor in the interaction between heparin and peptides 9 and 13, or whether the heparin structure was also critical to this interaction heparin along with two other sulfated glucosaminoglycans, dextran sulfate and chondroitin sulfate were used in competition experiments. A standard amount of 3.1 μg per well of peptide 9 and 12.5 ug per well of peptide 13 were coated on 96-well plates as described above. […] Wells were treated for two hours with 2 mg/ml BSA in wash buffer. Then, a final volume of 50 μls was added to each well, containing a standard amount of 3H-heparin (50,000 cpm per well) and various amounts of non-radioactiveheparin, dextran sulfate and […]. After incubating for two hours at 37° C., the wells were washed and radioactivity was counted as described above in Example 1. […] Therefore, the structure of heparin is a crucial factor for this interaction.

peptide 9 = biological target: T2, peptide 9 (Mus musculus, UniProt P02469); test: Heparin/peptide interaction specificity, competition on coated peptide 9 (Example 4); type: binding; conditions: 3.1 μg per well of peptide 9 coated, FIG. 7
T2 construct: made in house; host or cells: chemical solid-phase (Merrifield) synthesis, no expression host
Procedure: as §1

[2] = Heparin binding to peptides coated on 96-well plastic plates (Example 2); conditions: 1 mg/ml to 1 μg/ml, two hours at 37° C., FIG. 5
Procedure: In order to test the ability of the synthesized peptides (9 and 11-18) to bind to 96-well plastic plates (in which experiments with cultured cell lines can be performed), we did an experiment similar to that described above in Example 1. Stock solutions of peptides 9 and 11-18, laminin and BSA at a maximum concentration of 1 mg/ml were prepared and serially diluted in PBS+NaN3 producing final concentration from 1 mg/ml to 1 μg/ml. Fifty μl from each concentration was coated on the 96-well plates and left to dry overnight at 28° C. Then, wells were treated for two hours with […] of 2 mg/ml BSA in 6 mM phosphate, 100 mM NaCl, 68 μM CaCl2, pH 6.8 (wash buffer) in order to minimize non-specific binding. Next 50 μls of ^3 H-heparin (10 μg/ml) was added (50,000 cpm/well) for two hours at 37° C. The wells were then washed three times with wash buffer containing 0.05% Triton X-100 and finally they were incubated for thirty minutes at 60 C with 200 μl of 0.5 N NaOH and 1% SDS. The amount of ^3 H-heparin bound at each peptide concentration was quantitated as described above in Example 1.

T2 sequence (P02469 662-681 limits assumed): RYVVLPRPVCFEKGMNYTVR

In the case of `CC[C@H](C)[C@H](NC(=O)[C@H](Cc1ccc(O)cc1)NC(=O)CNC(=O)[C@@H]1CCCN1C(=O)[C@H](CC(=O)O)NC(=O)[C@H](CS)NC(=O)[C@@H](N)C(C)C)C(=O)NCC(=O)N[C@@H](CO)C(=O)N[C@@H](CCCNC(=N)N)C(=O)O` [Peptide F18, VCDPGYIGSR] (H-VCDPGYIGSR-OH), the endothelial cell adhesion [1] is reported as “potent promoters of endothelial cell adhesion”.
For “VEGVEGPRCDKCTRGY [Peptide F12, 16-mer, laminin B1 chain aa 1133-1148]”, the endothelial cell adhesion [1] was “potent promoters of endothelial cell adhesion”.
In the case of dermatan sulfate, the “molar concentration needed for 50% inhibition of ^3 H-heparin binding, relative to heparin” value (peptide 13) is reported as “Ten to one hundred times more molar concentration” and the “molar concentration needed for 50% inhibition of ^3 H-heparin binding, relative to heparin” value (peptide 9) is reported as “Ten to one hundred times more molar concentration”.
For dextran sulfate, the “molar concentration needed for 50% inhibition of ^3 H-heparin binding, relative to heparin” value (peptide 13) was “Ten to one hundred times more molar concentration” and the “molar concentration needed for 50% inhibition of ^3 H-heparin binding, relative to heparin” value (peptide 9) was “Ten to one hundred times more molar concentration”.
With laminin the “binding of ^3 H-heparin” value [2] was “bind heparin very well”.
